For 35 compounds, Ki results are on record in US6579881B2 (Eisai Co., Ltd., priority 1997, dated 2003).

Experiment [1] has as its target T1, serotonin 1A receptor (Rattus norvegicus, UniProt P19327).
T1 construct: To the receptor fraction of the hippocampus were added a test compound and 0.5 nM of [^3H]; 8-hydroxy-dipropylaminotetralin; from tissue; host or cells: SD rat hippocampus, membrane (receptor) fraction
T1 sequence (P19327 1-422): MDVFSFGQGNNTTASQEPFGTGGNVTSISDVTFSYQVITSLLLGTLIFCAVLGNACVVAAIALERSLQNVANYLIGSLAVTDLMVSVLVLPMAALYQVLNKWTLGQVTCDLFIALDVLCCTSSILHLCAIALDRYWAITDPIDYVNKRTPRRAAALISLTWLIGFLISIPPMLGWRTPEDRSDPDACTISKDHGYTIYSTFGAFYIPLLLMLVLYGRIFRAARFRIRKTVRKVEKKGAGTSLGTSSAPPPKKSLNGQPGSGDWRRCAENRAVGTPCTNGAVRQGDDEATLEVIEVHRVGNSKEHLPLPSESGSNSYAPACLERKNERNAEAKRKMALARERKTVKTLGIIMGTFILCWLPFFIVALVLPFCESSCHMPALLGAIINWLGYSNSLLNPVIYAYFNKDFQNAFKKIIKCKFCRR
Description: Binding test on [3H] 8-hydroxy-dipropylaminotetralin (serotonin 1A receptor). The following applies: [3H] 8-OH-DPAT 0.5 nM, receptor fraction of rat hippocampus; read-out: 5HT1a.

Experiment [2] concerns the target serotonin 2 receptor (Rattus norvegicus, UniProt P14842). In words: Binding test on [3H] ketanserin (serotonin 2 receptor). Particulars: [3H] ketanserin 0.3 nM, receptor fraction of rat cerebral cortex; read-out: 5HT2.

Counter-ions that a name gives are not always drawn.

Sequence of serotonin 2 receptor (P14842 whole entry): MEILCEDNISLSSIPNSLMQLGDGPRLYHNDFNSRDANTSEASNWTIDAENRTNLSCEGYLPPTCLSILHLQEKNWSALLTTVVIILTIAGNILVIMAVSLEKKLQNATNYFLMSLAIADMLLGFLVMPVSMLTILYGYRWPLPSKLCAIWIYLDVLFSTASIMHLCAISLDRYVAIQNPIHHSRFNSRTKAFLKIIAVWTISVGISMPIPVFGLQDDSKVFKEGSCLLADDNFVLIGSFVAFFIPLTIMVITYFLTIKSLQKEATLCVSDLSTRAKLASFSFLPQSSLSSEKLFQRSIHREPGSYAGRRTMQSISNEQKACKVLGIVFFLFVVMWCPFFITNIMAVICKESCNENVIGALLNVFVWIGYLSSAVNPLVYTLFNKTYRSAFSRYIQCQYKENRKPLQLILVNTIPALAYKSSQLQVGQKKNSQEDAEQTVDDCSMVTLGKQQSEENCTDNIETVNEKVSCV

As for `FCc1ccc2c(c1)N(C1CCN(CCc3ccc(F)cc3)CC1)CC2` [Example 143, 1-[1-(4-fluorophenethyl)piperidin-4-yl]-6-fluoromethylindoline], the values for the Ki in experiment [1] and in experiment [2] were 1.86 nM and 3.36 nM, respectively.

Turning to `c1ccc2c(c1)CCN2C1CCN(CCc2nccs2)CC1` [Example 60, 1-[1-(2-thiazolylethyl)piperidin-4-yl]indoline], the values for the Ki in experiment [1] and in experiment [2] were 60.8 nM and over 200 nM, respectively.

In the case of `COc1ccc2c(c1)N(C1CCN(CCc3ccc4ncsc4c3)CC1)CC2` [Example 233, 1-{1-[2-(6-benzothiazolyl)ethyl]-piperidin-4-yl}-6-methoxyindoline], the Ki in experiment [1] is 0.6 nM; in experiment [2] it was over 200 nM.

Take `Fc1ccc(CCN2CCC(N3CCc4ccc(-c5ccc(F)cc5)cc43)CC2)cc1` [Example 201, 1-[1-(4-fluorophenethyl)piperidin-4-yl]-6-(4-fluorophenyl)indoline]: the Ki in experiment [1] is 7.05 nM; in experiment [2], over 200 nM.

`CC(F)c1ccc2c(c1)N(C1CCN(CCc3ccc(F)cc3)CC1)CC2` (stereo not shown) [Example 144, 1-[1-(4-fluorophenethyl)piperidin-4-yl]-6-(1-fluoroethyl)indoline]: the Ki in experiment [1] is 1.49 nM; in experiment [2], 3.38 nM.

For the compound `CS(=O)(=O)Nc1ccc2c(c1)N(C1CCN(CCc3ccc(F)cc3F)CC1)CC2` [Example 221, 1-[1-(2,4-difluorophenethyl)piperidin-4-yl]-6-methanesulfonylaminoindoline], the Ki was 1.9 nM in experiment [1] and 2.4 nM in experiment [2].

On to `c1ccc2c(c1)CCN2C1CCN(CCc2cnccn2)CC1` [Example 67, 1-(1-pyrazinylethylpiperidin-4-yl)indoline], for which the values for the Ki in experiment [1] and in experiment [2] were 263 nM and 27.1 nM, respectively.

Take `CN(C)c1ccc2c(c1)N(C1CCN(CCc3ccc(F)cc3)CC1)CC2` [Example 114, 1-[1-(4-fluorophenethyl)piperidin-4-yl]-6-dimethylaminoindoline]: the results for the Ki in experiment [1] and in experiment [2] were 5.8 nM and 23.2 nM, respectively.

For `OC(CCCN1CCC(N2CCc3ccccc32)CC1)c1ccc(F)cc1` (stereo not shown) [Example 73, 1-{1-[4-(4-fluorophenyl)-4-hydroxybutyl]piperidin-4-yl}indoline], the Ki in experiment [1] came to 34.9 nM; in experiment [2] it was 7.2 nM.

In the case of `Fc1ccc(CCN2CCC(N3CCc4ccc(Cc5ccncc5)cc43)CC2)cc1` [Example 179, 1-[1-(4-fluorophenethyl)piperidin-4-yl]-6-(4-pyridylmethyl)indoline], the Ki in experiment [1] came out at 0.17 nM; in experiment [2] it was 0.41 nM.

As for `N#CCc1ccc2c(c1)N(C1CCN(CCc3ccc(F)cc3)CC1)CC2` [Example 145, 1-[1-(4-fluorophenethyl)piperidin-4-yl]-6-cyanomethylindoline], the Ki worked out at 8.07 nM in experiment [1] and 48.8 nM in experiment [2].

As for `c1ccc(CCN2CCC(N3CCc4ccccc43)CC2)nc1` [Example 50, 1-{1-[2-(2-pyridyl)ethyl]piperidin-4-yl}indoline], the results for the Ki in experiment [1] and in experiment [2] were 31.2 nM and 52.2 nM, respectively.

Take `O=c1ccc(C(O)c2ccc3c(c2)N(C2CCN(CCc4ccc(F)cc4)CC2)CC3)c[nH]1` (stereo not shown) [Example 190, 1-[1-(4-fluorophenethyl)piperidin-4-yl]-6-[1-hydroxy-1-(2-pyridon-5-yl)methyl]indoline]: the results for the Ki in experiment [1] and in experiment [2] were 0.49 nM and 0.33 nM, respectively.

`O=C1CSC(=O)N1Cc1ccc2c(c1)N(C1CCN(CCc3ccc(F)cc3)CC1)CC2` [Example 209, 1-[1-(4-fluorophenethyl)piperidin-4-yl]-6-(2,4-thiazolidinedion-3-yl)methylindoline]: the Ki in experiment [1] was found to be 6.98 nM; in experiment [2], 4.72 nM.

With `OC(c1ccc2c(c1)N(C1CCN(CCc3ccc(F)cc3)CC1)CC2)c1nccs1` (stereo not shown) [Example 193, 1-[1-(4-fluorophenethyl)piperidin-4-yl]-6-[1-(2-thiazolyl)-1-hydroxymethyl]indoline], the Ki in experiment [1] was found to be 6.92 nM; in experiment [2] it was 2.88 nM.

For the compound `CCN1CCN(C2CCc3ccc(OC)cc32)CC1` (stereo not shown) [Example 251, 1-(4-ethylpiperazin-1-yl)-6-methoxyindan Hydrochloride], the figures for the Ki in experiment [1] and in experiment [2] were 58.5 nM and over 200 nM, respectively.

Regarding `COc1cncc(CCN2CCC(N3CCc4ccccc43)CC2)c1` [Example 53, 1-{1-[2-(3-methoxypyridin-5-yl)ethyl]piperidin-4-yl}indoline], the Ki in experiment [1] was found to be 21.5 nM; in experiment [2], 2.1 nM.

For the compound `CCN1CC[C@H](N2CCc3ccccc32)[C@H](COc2ccc(F)cc2)C1` (relative stereo) [Example 84, cis-1-[1-ethyl-3-(4-fluorophenoxymethyl)piperidin-4-yl]indoline], the Ki in experiment [1] was over 200 nM; in experiment [2] it was 134 nM.

Turning to `COc1cc2c(cc1Cl)CCN2C1CCN(CCc2ccc(F)cc2)CC1` [Example 219, 1-[1-(4-fluorophenethyl)piperidin-4-yl]-5-chloro-6-methoxyindoline], the Ki in experiment [1] is 19.6 nM; in experiment [2], 30.9 nM.

For the compound `c1ccc2c(c1)CCN2C1CCN(CCc2ccc3ncsc3c2)CC1` [Example 63, 1-{1-[2-(6-benzothiazolyl)ethyl]piperidin-4-yl}indoline], the Ki was determined as 3.2 nM in experiment [1] and 1.2 nM in experiment [2].

As to `OC(c1ccc2c(c1)N(C1CCN(CCc3ccc(F)cc3)CC1)CC2)c1cncs1` (stereo not shown) [Example 196, 1-[1-(4-fluorophenethyl)piperidin-4-yl]-6-[1-(5-thiazolyl)-1-hydroxymethyl]indoline], the values for the Ki in experiment [1] and in experiment [2] were 1.67 nM and 1.17 nM, respectively.

As for `COc1ccc2c(c1)C(N1CCN(CC(=O)c3ccc(F)cc3)CC1)CCC2` (stereo not shown) [Example 281, 1-{4-[2-(4-fluorophenyl)-2-oxoethyl]piperazin-1-yl}-7-methoxy-1,2,3,4-tetrahydronaphthalene Hydrochloride], the Ki turned out to be 35.2 nM in experiment [1] and 11.2 nM in experiment [2].

In the case of `CCC(=O)NCc1ccc(CCN2CCC(N3CCc4ccccc43)CC2)cc1` [Example 39], the Ki in experiment [1] was 1.6 nM; in experiment [2], 8.9 nM.

With `CS(=O)(=O)NCc1ccc2c(c1)N(C1CCN(CCc3ccc(F)cc3)CC1)CC2` [Example 160, 1-[1-(4-fluorophenethyl)piperidin-4-yl]-6-methylsulfonylaminomethylindoline], the Ki in experiment [1] came to 3.86 nM; in experiment [2] it was 8 nM.

Turning to `OCc1ccc(OCCCN2CCC(N3CCc4ccccc43)CC2)cc1` [Example 70, 1-{1-[3-(4-hydroxymethylphenoxy)propyl]piperidin-4-yl}indoline], the Ki in experiment [1] is 41.9 nM; in experiment [2], 27.6 nM.

Regarding `CC(O)(c1ccc2c(c1)N(C1CCN(CCc3ccc(F)cc3)CC1)CC2)c1ccccn1` (stereo not shown) [Example 181, 1-[1-(4-fluorophenethyl)piperidin-4-yl]-6-[1-hydroxy-1-(2-pyridyl)ethyl]indoline], the Ki in experiment [1] was 1030 nM; in experiment [2] it was 9.62 nM.

Turning to `CC(C)Nc1ccc2c(c1)N(C1CCN(CCc3ccc(F)cc3)CC1)CC2` [Example 113, 1-[1-(4-fluorophenethyl)piperidin-4-yl]-6-isopropylaminoindoline], the values for the Ki in experiment [1] and in experiment [2] were 13.7 nM and over 200 nM, respectively.

Take `Fc1ccc(CCN2CCC(N3CCc4ccc(Cl)nc43)CC2)c(F)c1` [Example 262, 1-[1-(2,4-difluorophenethyl)piperidin-4-yl]-6-chloro-7-azaindoline]: the Ki was found to be 1.5 nM in experiment [1] and 2.1 nM in experiment [2].

Take `OCCOc1ccc2c(c1)CCCC2C1CCN(CCc2ccc(F)cc2)CC1` (stereo not shown) [Example 278, 1-[2-(4-fluorophenyl)ethyl]-4-[6-(2-hydroxy)ethoxy-1,2,3,4-tetrahydronaphthalen-1-yl]piperidine]: the Ki in experiment [1] was over 200 nM; in experiment [2], 3.9 nM.

For `Fc1ccc(CCN2CCC(N3CCc4ccc(Cl)nc43)CC2)cc1` [Example 259, 1-[1-(4-fluorophenethyl)piperidin-4-yl]-6-chloro-7-azaindoline], the Ki is 0.6 nM in experiment [1] and 5.9 nM in experiment [2].

Consider `COc1ccc(CCN2CCC(N3CCc4ccc(F)cc43)CC2)cc1` [Example 229, 1-[1-(4-methoxyphenethyl)piperidin-4-yl]-6-fluoroindoline], for which the Ki in experiment [1] was 2.5 nM; in experiment [2] it was over 200 nM.

In the case of `C[C@@H]1CN(CCc2ccc(F)cc2)CC[C@@H]1N1CCc2ccccc21` (relative stereo) [Example 79, cis-1-[1-(4-fluorophenethyl)-3-methylpiperidin-4-yl]indoline], the Ki turned out to be 115 nM in experiment [1] and 26.5 nM in experiment [2].

Take `COc1ccc(S(=O)(=O)NCCN2CCC(N3CCc4ccccc43)CC2)cc1` [Example 48, 1-{1-[2-(4-methoxyphenylsulfonylamino)ethyl]piperidin-4-yl}indoline]: the Ki is 15.3 nM in experiment [1] and 35 nM in experiment [2].

Turning to `OC(c1ccncc1)c1ccc2c(c1)N(C1CCN(CCc3ccc(F)cc3)CC1)CC2` (stereo not shown) [Example 178], the Ki in experiment [1] worked out at 10.2 nM; in experiment [2], 2.53 nM.

In the case of `Cn1cccc1-c1ccc2c(c1)N(C1CCN(CCc3ccc(F)cc3)CC1)CC2` [Example 173, 1-[1-(4-fluorophenethyl)piperidin-4-yl]-6-(1-methylpyrrol-2-yl)indoline], the Ki in experiment [1] turned out to be 0.06 nM; in experiment [2] it was 70.1 nM.
